Laboratory results: patent US20100040566A1, “EMULSION” (Riemann Trading ApS, priority 2006, published 2010)

Test: Determination of photo stability (Xenon arc lamp irradiation, HPLC of UV-filters)
Type: physicochemical
Conditions: for photo stability (in words): 3 MED/2 h irradiation; for Content of UV-Filter Substances, After irradiation [3MED/2 h], Found [%]: Xenon arc lamp, 3 MED after two hours, HPLC; for Content of UV-Filter Substances, Before irradiation, Found [%]: in sample prepared as in Example 1, HPLC; for Content of UV-Filter Substances, After irradiation [3MED/2 h], [%] rel.: relative to content before irradiation
From the text: The test sample are weighed and distributed evenly and homogeneously with a brush onto the marked area of a glass plate.
For the Irradiation we use a Xenon arc lamp because the continuous spectrum in the UV-region is near—identical to that of—natural light. The lamp is turned on approximately one hour before Irradiation.
The glass plate Is positioned under the lamp so that the square with the test sample is maximally illuminated.
The distance (lamp-glass plate) is acquired with the aid of a calibrated hand radiometer (PMA 2100) with UV-B detector. The radiant Intensity of the lamp on the sample is set up so that an Irradiation dose of 3 MED (Minimal Erythemal Dose) is given after two hours.
In order to ascertain to which extent each of the Individual UV-filters in the tested formulations has been photometrically degraded, they are analytically quantified before and after irradiation.
The instrumental-analytical method used is HPLC
Sample is prepared as described in Example 1

| SMILES | photo stability (in words) | Content of UV-Filter Substances, After irradiation [3MED/2 h], Found [%] | Content of UV-Filter Substances, Before irradiation, Found [%] | Content of UV-Filter Substances, After irradiation [3MED/2 h], [%] rel. [%] |
| --- | --- | --- | --- | --- |
| CCCCC(CC)COC(=O)C(C#N)=C(c1ccccc1)c1ccccc1 (stereo not drawn) [Octocrylene] | very good value of photo stability | 9.35 | 9.98 | 93.7 |
| CCCCCCOC(=O)c1ccccc1C(=O)c1ccc(N(CC)CC)cc1O [Diethylamino Hydroxybenzoyl Hexyl Benzoate] | very good value of photo stability | 1.21 | 1.29 | 93.8 |
| CCCCC(CC)COC(=O)C=Cc1ccc(OC)cc1 (stereo not drawn) [Ethylhexyl Methoxycinnamate] | relatively strong degradation | – | – | – |
